Values of other authors, collected in patent US20090181849A1, “Agricultural chemical containing top dressing composition and process for use thereof” (priority 2007, published 2009).

Experiments:
S. homoeocarpa = details: bent grass, blend of Cato:Crenshaw (50:50); disease pressure high
curvularia fungus = details: Kentucky bluegrass plants growing in sand; sprayed and fertilized in separate applications; not on bent grass or Bermuda grass plants

| SMILES | reduction of number of S. homoeocarpa infection centers (S. homoeocarpa) [%] | control of curvularia fungus (curvularia fungus) |
| --- | --- | --- |
| CSC(=O)c1cccc2nnsc12 [ASM, acibenzolar-5-methyl] | 38 |  |
| O=[N+]([O-])NC1=NCCN1Cc1ccc(Cl)nc1 [imidacloprid] |  | successful control |
